The values that follow are results of earlier work, collected in patent US20220273822A1, “ANIMAL MODEL OF IDIOPATHIC PULMONARY FIBROSIS, ITS CONSTRUCTION METHOD AND USE” (National Institute of Biological Sciences, Beijing, priority 2019, published 2022).

For the series the following is noted: IPF.

For the molecule `COC(=O)c1ccc2c(c1)NC(=O)/C2=C(\Nc1ccc(N(C)C(=O)CN2CCN(C)CC2)cc1)c1ccccc1` [nintedanib], the mortality entry is “tendency of reducing mortality” and the survival time entry was “failed to show significantly increased survival time”.

In the case of `Cc1ccc(=O)n(-c2ccccc2)c1` [pirfenidone], the mortality entry was “tendency of reducing mortality” and the survival time entry was “failed to show significantly increased survival time”.
